Reference: ChEMBL document CHEMBL2057073, “Synthesis and structure-activity relationship studies of 1,3-disubstituted 2-propanols as BACE-1 inhibitors” (Bioorg Med Chem Lett, 2012)

Experiments:
Beta-secretase 1 [1] = target: T1, Beta-secretase 1 (Homo sapiens, UniProt P56817); assay: Inhibition of BACE1 at 100 uM by FRET assay
Beta-secretase 1 [2] = target: T1, Beta-secretase 1; assay: Inhibition of BACE1 at 50 uM by FRET assay
Beta-secretase 1 [3] = target: T1, Beta-secretase 1; assay: Inhibition of BACE1 at 25 uM by FRET assay

T1 sequence (P56817 whole entry): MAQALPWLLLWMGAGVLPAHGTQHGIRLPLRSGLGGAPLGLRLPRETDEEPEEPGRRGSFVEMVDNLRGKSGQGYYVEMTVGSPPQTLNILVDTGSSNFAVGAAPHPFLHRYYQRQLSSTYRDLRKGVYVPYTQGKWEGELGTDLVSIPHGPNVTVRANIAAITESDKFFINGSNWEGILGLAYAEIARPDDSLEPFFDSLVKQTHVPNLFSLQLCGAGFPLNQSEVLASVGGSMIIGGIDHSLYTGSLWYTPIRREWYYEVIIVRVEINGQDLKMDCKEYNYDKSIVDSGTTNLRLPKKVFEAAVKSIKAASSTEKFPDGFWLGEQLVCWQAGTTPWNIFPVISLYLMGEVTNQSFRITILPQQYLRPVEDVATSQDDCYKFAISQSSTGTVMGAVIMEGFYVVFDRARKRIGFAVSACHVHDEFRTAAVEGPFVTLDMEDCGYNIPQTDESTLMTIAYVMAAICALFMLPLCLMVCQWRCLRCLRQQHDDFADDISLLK

SMILES | inhibition (Beta-secretase 1 [1]) | inhibition (Beta-secretase 1 [2]) | inhibition (Beta-secretase 1 [3])
CCc1ccccc1SCC(O)CN(Cc1ccccc1)Cc1ccccc1 (stereo unspecified) | 54% |  | 
Cc1ccc(SCC(O)CN(Cc2ccccc2)Cc2ccccc2)cc1 (stereo unspecified) | 7% |  | 
COc1ccc(SCC(O)COc2ccc(Cc3ccccc3)cc2)cc1 (stereo unspecified) | 48% |  | 
COc1ccc(SCC(O)Cn2ccc3ccccc32)c(OC)c1 (stereo unspecified) | 84% | 76% | 43%
OC(CSc1nnnn1-c1ccccc1)CN1CCC(C(O)(c2ccccc2)c2ccccc2)CC1 (stereo unspecified) | 1% |  | 
COc1ccc(SCC(O)CN(Cc2ccccc2)Cc2ccccc2)c(OC)c1 (stereo unspecified) | 34% |  | 
OC(CSc1nnnn1-c1ccccc1)Cn1c2ccccc2c2ccccc21 (stereo unspecified) | 64% |  | 
OC(CSc1ccccc1)Cn1c2ccccc2c2ccccc21 (stereo unspecified) | 86% | 85% | 79%
CCc1cccc2ccn(CC(O)CSc3ccccc3O)c12 (stereo unspecified) | 32% |  | 
COc1ccc(SCC(O)Cn2c(-c3ccccc3)cc3ccccc32)c(OC)c1 (stereo unspecified) | 77% | 42% | 21%
OC(CSc1nnnn1-c1ccccc1)Cn1ccc2ccccc21 (stereo unspecified) | 58% |  | 
CCc1ccccc1SCC(O)COc1ccc(Cc2ccccc2)cc1 (stereo unspecified) | 71% |  | 
CCc1ccc(SCC(O)Cn2c(-c3ccccc3)cc3ccccc32)cc1 (stereo unspecified) | 79% | 78% | 42%
COc1cc2c(cc1OC)C(c1ccccc1)N(CC(O)CSc1cc(C)cc(C)c1)CC2 (stereo unspecified) | 15% |  | 
Cc1ccc(SCC(O)COc2ccc(-c3ccccc3)cc2)cc1 (stereo unspecified) | 27% |  | 
Nc1cccc(SCC(O)Cn2c(-c3ccccc3)cc3ccccc32)c1 (stereo unspecified) | 73% |  | 
COc1ccc(SCC(O)COc2ccc(-c3ccccc3)cc2)cc1 (stereo unspecified) | 45% |  | 
OC(COc1ccc(Cc2ccccc2)cc1)CSc1ccccc1F (stereo unspecified) | 64% |  | 
Cc1cc(C)cc(SCC(O)CN(Cc2ccccc2)Cc2ccccc2)c1 (stereo unspecified) | 38% |  | 

SMILES | inhibition (Beta-secretase 1 [1]) | inhibition (Beta-secretase 1 [2]) | inhibition (Beta-secretase 1 [3])
Oc1ccccc1SCC(O)COc1ccc(Cc2ccccc2)cc1 (stereo unspecified) | 84% | 101% | 90%
OC(CSc1ccc2ccccc2c1)CN(Cc1ccccc1)Cc1ccccc1 (stereo unspecified) | 19% |  | 
CCc1ccc(SCC(O)COc2ccc(Cc3ccccc3)cc2)cc1 (stereo unspecified) | 69% |  | 
CCc1ccccc1SCC(O)CN1CCc2cc(OC)c(OC)cc2C1c1ccccc1 (stereo unspecified) | 1% |  | 
Cc1c(C)n(CC(O)CSc2ccccc2Cl)c2ccccc12 (stereo unspecified) | 100% | 93% | 68%
OC(CSc1nnnn1-c1ccccc1)Cn1c2c(c3ccccc31)CCC2 (stereo unspecified) | 87% | 76% | 37%
COc1ccc(SCC(O)CN2CCc3cc(OC)c(OC)cc3C2c2ccccc2)c(OC)c1 (stereo unspecified) | 24% |  | 
COc1ccc(SCC(O)CN2CCC(C(O)(c3ccccc3)c3ccccc3)CC2)c(OC)c1 (stereo unspecified) | 0% |  | 
Cc1c(C)n(CC(O)CSc2ccccc2O)c2ccccc12 (stereo unspecified) | 61% |  | 
OC(CSc1nnnn1-c1ccccc1)Cn1c(-c2ccccc2)cc2ccccc21 (stereo unspecified) | 53% |  | 
COc1ccc(SCC(O)Cn2c3ccccc3c3ccccc32)c(OC)c1 (stereo unspecified) | 80% | 69% | 22%
COc1cc2c(cc1OC)C(c1ccccc1)N(CC(O)CSc1nnnn1-c1ccccc1)CC2 (stereo unspecified) | 45% |  | 
OC(CSc1nnnn1-c1ccccc1)CN(Cc1ccccc1)Cc1ccccc1 (stereo unspecified) | 0% |  | 
COc1cc2c(cc1OC)C(c1ccccc1)N(CC(O)CSc1ccccc1F)CC2 (stereo unspecified) | 23% |  | 
Oc1ccc(SCC(O)COc2ccc(-c3ccccc3)cc2)cc1 (stereo unspecified) | 17% |  | 
OC(CSc1ccccc1F)CN(Cc1ccccc1)Cc1ccccc1 (stereo unspecified) | 1% |  | 
OC(CSc1ccc(Cl)cc1)CN(Cc1ccccc1)Cc1ccccc1 (stereo unspecified) | 24% |  | 
OC(CSCCCc1ccccc1)CN(Cc1ccccc1)Cc1ccccc1 (stereo unspecified) | 16% |  | 
Cc1ccccc1SCC(O)COc1ccc(-c2ccccc2)cc1 (stereo unspecified) | 74% |  | 

SMILES | inhibition (Beta-secretase 1 [1]) | inhibition (Beta-secretase 1 [2]) | inhibition (Beta-secretase 1 [3])
COc1ccc(SCC(O)CN(Cc2ccccc2)Cc2ccccc2)cc1 (stereo unspecified) | 10% |  | 
Oc1ccccc1SCC(O)COc1ccc(-c2ccccc2)cc1 (stereo unspecified) | 33% |  | 
OC(COc1ccc(Cc2ccccc2)cc1)CSc1nnnn1-c1ccccc1 (stereo unspecified) | 62% |  | 
OC(CSc1ccccc1Cl)CN(Cc1ccccc1)Cc1ccccc1 (stereo unspecified) | 45% |  | 
COc1ccc(SCC(O)COc2ccc(Cc3ccccc3)cc2)c(OC)c1 (stereo unspecified) | 67% |  | 
Cc1cc(C)cc(SCC(O)COc2ccc(Cc3ccccc3)cc2)c1 (stereo unspecified) | 71% |  | 
CCc1cccc2ccn(CC(O)CSc3ccc(OC)cc3OC)c12 (stereo unspecified) | 69% |  | 
OC(CSc1ccccc1)CN(Cc1ccccc1)Cc1ccccc1 (stereo unspecified) | 0% |  | 
OC(COc1ccc(-c2ccccc2)cc1)CSc1nnnn1-c1ccccc1 (stereo unspecified) | 71% |  | 
CCc1cccc2ccn(CC(O)CSCCCc3ccccc3)c12 (stereo unspecified) | 0% |  | 
COc1cc2c(cc1OC)C(c1ccccc1)N(CC(O)CSc1ccccc1C)CC2 (stereo unspecified) | 24% |  | 
OC(COc1ccc(Cc2ccccc2)cc1)CSc1ccc(Cl)cc1 (stereo unspecified) | 63% |  | 
Cc1ccccc1SCC(O)Cn1c(-c2ccccc2)cc2ccccc21 (stereo unspecified) | 67% |  | 
COc1ccc(SCC(O)COc2ccc(-c3ccccc3)cc2)c(OC)c1 (stereo unspecified) | 74% |  | 
Oc1ccccc1SCC(O)Cn1ccc2ccccc21 (stereo unspecified) | 24% |  | 
Oc1ccccc1SCC(O)CN(Cc1ccccc1)Cc1ccccc1 (stereo unspecified) | 2% |  | 
CCc1cccc2ccn(CC(O)CSc3nnnn3-c3ccccc3)c12 (stereo unspecified) | 86% | 46% | 
COc1ccc(SCC(O)Cn2c(-c3ccccc3)cc3ccccc32)cc1 (stereo unspecified) | 70% |  | 

Next, values leading:

inhibition (Beta-secretase 1 [1]) | inhibition (Beta-secretase 1 [2]) | inhibition (Beta-secretase 1 [3]) | SMILES
96% | 70% | 26% | COc1ccc(SCC(O)Cn2c(C)c(C)c3ccccc32)cc1 (stereo unspecified)
85% | 64% | 35% | OC(CSc1ccccc1)Cn1c2c(c3ccccc31)CCC2 (stereo unspecified)
54% |  |  | OC(CSc1ccc(F)cc1)Cn1ccc2ccccc21 (stereo unspecified)
87% | 80% | 43% | OC(CSc1ccc2ccccc2c1)Cn1c2c(c3ccccc31)CCC2 (stereo unspecified)
83% | 54% | 11% | CCc1cccc2ccn(CC(O)CSc3ccc(OC)cc3)c12 (stereo unspecified)
0% |  |  | OC(CSc1ccc(Cl)cc1)CN1CCCCCC1 (stereo unspecified)
5% |  |  | Cc1ccccc1SCC(O)CN1CCC(C(O)(c2ccccc2)c2ccccc2)CC1 (stereo unspecified)
21% |  |  | CCc1ccc(SCC(O)CN2CCc3cc(OC)c(OC)cc3C2c2ccccc2)cc1 (stereo unspecified)
91% | 81% | 55% | Cc1ccc(SCC(O)Cn2c3c(c4ccccc42)CCC3)cc1 (stereo unspecified)
10% |  |  | OC(CSc1ccc(Cl)cc1)CN1CCC(C(O)(c2ccccc2)c2ccccc2)CC1 (stereo unspecified)
2% |  |  | OC(CSc1ccccc1)CN1CCCCCC1 (stereo unspecified)
1% |  |  | CCc1ccc(SCC(O)CN2CCC(C(O)(c3ccccc3)c3ccccc3)CC2)cc1 (stereo unspecified)
87% | 92% | 56% | OC(CSc1ccc(F)cc1)Cn1c2c(c3ccccc31)CCCC2 (stereo unspecified)
75% |  |  | Cc1c(C)n(CC(O)CSc2ccc(O)cc2)c2ccccc12 (stereo unspecified)
0% |  |  | OC(CSc1ccc2ccccc2c1)CN1CCC(C(O)(c2ccccc2)c2ccccc2)CC1 (stereo unspecified)
76% | 65% | 45% | Cc1ccc(SCC(O)Cn2c(-c3ccccc3)cc3ccccc32)cc1 (stereo unspecified)
2% |  |  | OC(CSc1ccccc1)CN1CCC(C(O)(c2ccccc2)c2ccccc2)CC1 (stereo unspecified)
15% |  |  | COc1cc2c(cc1OC)C(c1ccccc1)N(CC(O)CSc1ccc(F)cc1)CC2 (stereo unspecified)
55% |  |  | Cc1c(C)n(CC(O)CSc2cccc(N)c2)c2ccccc12 (stereo unspecified)
88% | 72% | 37% | COc1ccc(SCC(O)Cn2c3ccccc3c3ccccc32)cc1 (stereo unspecified)
3% |  |  | Oc1ccccc1SCC(O)CN1CCC(C(O)(c2ccccc2)c2ccccc2)CC1 (stereo unspecified)
87% |  |  | Cc1c(C)n(CC(O)CSc2ccc3ccccc3c2)c2ccccc12 (stereo unspecified)
2% |  |  | OC(CSc1ccc(F)cc1)CN(Cc1ccccc1)Cc1ccccc1 (stereo unspecified)

inhibition (Beta-secretase 1 [1]) | inhibition (Beta-secretase 1 [2]) | inhibition (Beta-secretase 1 [3]) | SMILES
3% |  |  | COc1cc2c(cc1OC)C(c1ccccc1)N(CC(O)CSc1ccc(Cl)cc1)CC2 (stereo unspecified)
56% |  |  | Cc1c(C)n(CC(O)CSc2ccccc2F)c2ccccc12 (stereo unspecified)
20% |  |  | COc1ccc(SCC(O)CN2CCc3cc(OC)c(OC)cc3C2c2ccccc2)cc1 (stereo unspecified)
0% |  |  | Oc1ccc(SCC(O)CN2CCC(C(O)(c3ccccc3)c3ccccc3)CC2)cc1 (stereo unspecified)
1% |  |  | Cc1ccc(SCC(O)CN2CCC(C(O)(c3ccccc3)c3ccccc3)CC2)cc1 (stereo unspecified)
92% | 61% | 38% | CCc1ccc(SCC(O)Cn2ccc3cccc(CC)c32)cc1 (stereo unspecified)
69% |  |  | Cc1c(C)n(CC(O)CSc2ccccc2)c2ccccc12 (stereo unspecified)
0% |  |  | COc1ccc(SCC(O)CN2CCC(C(O)(c3ccccc3)c3ccccc3)CC2)cc1 (stereo unspecified)
10% |  |  | OC(CSc1ccc(F)cc1)CN1CCCCCC1 (stereo unspecified)
11% |  |  | COc1cc2c(cc1OC)C(c1ccccc1)N(CC(O)CSc1ccc(C)cc1)CC2 (stereo unspecified)
94% | 82% | 51% | OC(CSc1ccccc1F)Cn1c2c(c3ccccc31)CCC2 (stereo unspecified)
3% |  |  | CCc1ccccc1SCC(O)CN1CCC(C(O)(c2ccccc2)c2ccccc2)CC1 (stereo unspecified)
15% |  |  | Cc1cc(C)cc(SCC(O)CN2CCCCCC2)c1 (stereo unspecified)
0% |  |  | Cc1cc(C)cc(SCC(O)CN2CCC(C(O)(c3ccccc3)c3ccccc3)CC2)c1 (stereo unspecified)
0% |  |  | OC(CSc1nnnn1-c1ccccc1)CN1CCCCCC1 (stereo unspecified)
8% |  |  | OC(CSc1ccccc1F)CN1CCC(C(O)(c2ccccc2)c2ccccc2)CC1 (stereo unspecified)
82% | 69% | 56% | OC(CSc1ccc(Cl)cc1)Cn1c(-c2ccccc2)cc2ccccc21 (stereo unspecified)
62% |  |  | OC(COc1ccc(Cc2ccccc2)cc1)CSc1ccc(F)cc1 (stereo unspecified)
74% |  |  | COc1ccc(SCC(O)Cn2c3c(c4ccccc42)CCCC3)c(OC)c1 (stereo unspecified)
5% |  |  | OC(CSc1ccccc1Cl)CN1CCC(C(O)(c2ccccc2)c2ccccc2)CC1 (stereo unspecified)
0% |  |  | OC(CSc1ccc2ccccc2c1)CN1CCCCCC1 (stereo unspecified)
72% |  |  | CCc1ccc(SCC(O)Cn2ccc3ccccc32)cc1 (stereo unspecified)
75% |  |  | COc1ccc(SCC(O)Cn2c3c(c4ccccc42)CCC3)c(OC)c1 (stereo unspecified)
